According to the supplement of paper PMC10307832:

Experiments:
Assay in all cases: relative viability (nuclei count vs DMSO), 5 days (fraction); higher = more cells survive
Gemcitabine + Tozasertib = compound: Nc1ccn([C@@H]2O[C@H](CO)[C@@H](O)C2(F)F)c(=O)n1 [Gemcitabine] + Cc1cc(Nc2cc(N3CCN(C)CC3)nc(Sc3ccc(NC(=O)C4CC4)cc3)n2)n[nH]1 [Tozasertib] (partner 0.1 µM)
How it was run: (§1)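 Five library-drug doses in √10 steps were combined with a fixed anchor-drug dose, or a single drug was given alone, by pin tool to lung cancer cell lines in 1536-well plates the day after seeding. Nuclei were stained and counted after 5 days. Relative viability is the nuclei count in treated wells over that in vehicle wells, taken as the median of duplicate plates.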

Gemcitabine + Dasatinib = compound: Nc1ccn([C@@H]2O[C@H](CO)[C@@H](O)C2(F)F)c(=O)n1 [Gemcitabine] + Cc1nc(Nc2ncc(C(=O)Nc3c(C)cccc3Cl)s2)cc(N2CCN(CCO)CC2)n1 [Dasatinib] (partner 0.075 µM)
How it was run: as §1

Gemcitabine + Foretinib = compound: Nc1ccn([C@@H]2O[C@H](CO)[C@@H](O)C2(F)F)c(=O)n1 [Gemcitabine] + COc1cc2c(Oc3ccc(NC(=O)C4(C(=O)Nc5ccc(F)cc5)CC4)cc3F)ccnc2cc1OCCCN1CCOCC1 [Foretinib] (partner 0.25 µM)
How it was run: as §1

Gemcitabine + Phenformin = compound: Nc1ccn([C@@H]2O[C@H](CO)[C@@H](O)C2(F)F)c(=O)n1 [Gemcitabine] + N=C(N)NC(=N)NCCc1ccccc1 [Phenformin] (partner 250 µM)
How it was run: as §1

Gemcitabine + OSI-027 = compound: Nc1ccn([C@@H]2O[C@H](CO)[C@@H](O)C2(F)F)c(=O)n1 [Gemcitabine] + COc1cccc2cc(-c3nc([C@H]4CC[C@H](C(=O)O)CC4)n4ncnc(N)c34)[nH]c12 [OSI-027] (partner 0.5 µM)
How it was run: as §1

Gemcitabine + Luminespib = compound: Nc1ccn([C@@H]2O[C@H](CO)[C@@H](O)C2(F)F)c(=O)n1 [Gemcitabine] + CCNC(=O)c1noc(-c2cc(C(C)C)c(O)cc2O)c1-c1ccc(CN2CCOCC2)cc1 [Luminespib] (partner 0.01 µM)
How it was run: as §1

Gemcitabine = compound: Nc1ccn([C@@H]2O[C@H](CO)[C@@H](O)C2(F)F)c(=O)n1 [Gemcitabine]
How it was run: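 Only plates meeting two conditions passed: control CV below 25% and at least one doubling. Lung cancer cell lines, kept overnight at 37 °C in 1536-well plates, were pinned with five library-drug doses (not always all listed) √10 apart on vehicle-anchored plates and grown 5 days without medium change. A one-step fix, permeabilisation and Hoechst stain preceded 4× imaging and MetaXpress nuclear counting. Viability equals treated-well nuclei divided by vehicle-well nuclei, as the median over plates.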

## NCI-H1623
Gemcitabine + Tozasertib; first compound 0.001 µM
  relative viability: 0.333
Gemcitabine + Tozasertib; first compound 0.003162 µM
  relative viability: 0.222
Gemcitabine + Tozasertib; first compound 0.01 µM
  relative viability: 0.173
Gemcitabine + Tozasertib; first compound 0.03162 µM
  relative viability: 0.16
Gemcitabine + Tozasertib; first compound 0.1 µM
  relative viability: 0.17
Gemcitabine + Dasatinib; first compound 0.001 µM
  relative viability: 0.485
Gemcitabine + Dasatinib; first compound 0.003162 µM
  relative viability: 0.431
Gemcitabine + Dasatinib; first compound 0.01 µM
  relative viability: 0.175
Gemcitabine + Dasatinib; first compound 0.03162 µM
  relative viability: 0.139
Gemcitabine + Dasatinib; first compound 0.1 µM
  relative viability: 0.143
Gemcitabine + Foretinib; first compound 0.001 µM
  relative viability: 0.741
Gemcitabine + Foretinib; first compound 0.003162 µM
  relative viability: 0.518
Gemcitabine + Foretinib; first compound 0.01 µM
  relative viability: 0.268
Gemcitabine + Foretinib; first compound 0.03162 µM
  relative viability: 0.229
Gemcitabine + Foretinib; first compound 0.1 µM
  relative viability: 0.194
Gemcitabine + Phenformin; first compound 0.001 µM
  relative viability: 0.526
Gemcitabine + Phenformin; first compound 0.003162 µM
  relative viability: 0.49
Gemcitabine + Phenformin; first compound 0.01 µM
  relative viability: 0.201
Gemcitabine + Phenformin; first compound 0.03162 µM
  relative viability: 0.369
Gemcitabine + Phenformin; first compound 0.1 µM
  relative viability: 0.164
Gemcitabine + OSI-027; first compound 0.001 µM
  relative viability: 0.349
Gemcitabine + OSI-027; first compound 0.003162 µM
  relative viability: 0.29
Gemcitabine + OSI-027; first compound 0.01 µM
  relative viability: 0.254
Gemcitabine + OSI-027; first compound 0.03162 µM
  relative viability: 0.245
Gemcitabine + OSI-027; first compound 0.1 µM
  relative viability: 0.237
Gemcitabine + Luminespib; first compound 0.001 µM
  relative viability: 0.43
Gemcitabine + Luminespib; first compound 0.003162 µM
  relative viability: 0.308
Gemcitabine + Luminespib; first compound 0.01 µM
  relative viability: 0.279
Gemcitabine + Luminespib; first compound 0.03162 µM
  relative viability: 0.236
Gemcitabine + Luminespib; first compound 0.1 µM
  relative viability: 0.234
Gemcitabine; 0.001 µM
  relative viability: 0.743
Gemcitabine; 0.003162 µM
  relative viability: 0.255
Gemcitabine; 0.01 µM
  relative viability: 0.218
Gemcitabine; 0.03162 µM
  relative viability: 0.188
Gemcitabine; 0.1 µM
  relative viability: 0.178
